Data reported in ChEMBL document CHEMBL4251679 (J Nat Prod, 2018).
Calls of active or inactive are those of the source. The rule behind the calls is not given here.

What was measured:
Bos taurus = species: Bos taurus; assay: Inhibition of [3H]2-m-AzTax binding to bovine brain beta-tubulin at 20 uM treated for 30 mins followed by UV irradiation for 10 mins by fluorographic method relative to control
[1] = target: Tubulin beta-4 chain (Gallus gallus) (UniProt P09652); assay: Inhibition of [3H]2-m-AzTax binding to chicken erythrocyte beta-tubulin 4 at 20 uM treated for 30 mins followed by UV irradiation for 10 mins by fluorographic method relative to control
Homo sapiens [2] = species: Homo sapiens; assay: Inhibition of [3H]2-m-AzTax binding to P-gp in human SKVLB1 cell plasma membranes at 40 uM treated for 30 mins followed by UV irradiation for 10 mins by fluorographic method relative to control
Homo sapiens [3] = species: Homo sapiens; assay: Binding affinity to P-gp in human SKVLB1 cells assessed as increase in [3H]vinblastine accumulation at 40 uM after 1 hr by liquid scintillation counting method; format: cell-based
SK-OV-3 [4] = assay: Effect on [3H]vinblastine accumulation in human SKOV3 cells at 40 uM after 1 hr by liquid scintillation counting method; format: functional, cell-based
Homo sapiens [5] = species: Homo sapiens; assay: Inhibition of [3H]2-m-AzTax binding to P-gp in human SKVLB1 cell plasma membranes assessed as residual [3H]2-m-AzTax binding at 40 uM treated for 30 mins followed by UV irradiation measured after 10 mins by fluorographic method relative to control
HEY = assay: Cytotoxicity against human HEY cells after 72 to 120 hrs by sulforhodamine B assay; format: functional, cell-based
[6] = Cytotoxicity against human Hey/Tx100 cells after 72 to 120 hrs by sulforhodamine B assay; format: functional, cell-based
[7] = Cytotoxicity against human Hey/Ixab80 cells after 72 to 120 hrs by sulforhodamine B assay; format: functional, cell-based
[8] = Cytotoxicity against human Hey/EpoB8 cells after 72 to 120 hrs by sulforhodamine B assay; format: functional, cell-based
SK-OV-3 [9] = assay: Cytotoxicity against human SKOV3 cells after 72 to 120 hrs by sulforhodamine B assay; format: functional, cell-based
[10] = Cytotoxicity against vinblastine-resistant human SKVLB1 cells after 72 to 120 hrs by sulforhodamine B assay; format: functional, cell-based
SK-OV-3 [11] = assay: Cytotoxicity against human SKOV3 cells after 72 to 120 hrs in presence of verapamil by sulforhodamine B assay; format: functional, cell-based
[12] = Substrate activity at P-gp in human SKVLB1 cells assessed as inhibition of cell growth after 72 to 120 hrs by sulforhodamine B assay; format: cell-based
[13] = Substrate activity at P-gp in human SKVLB1 cells assessed as inhibition of cell growth after 72 to 120 hrs in presence of verapamil by sulforhodamine B assay; format: cell-based
[14] = Resistance index, ratio of IC50 for human HEY/Tx100 cells to IC50 for human HEY cells; format: functional
[15] = Resistance index, ratio of IC50 for human HEY/Ixab80 cells to IC50 for human HEY cells; format: functional
[16] = Resistance index, ratio of IC50 for human HEY/EpoB8 cells to IC50 for human HEY cells; format: functional
[17] = Resistance index, ratio of IC50 for vinblastine-resistant human SKVLB1 cells to IC50 for human SKOV3 cells; format: functional
P-gp [18] = assay: Resistance index, ratio of IC50 for substrate activity at P-gp in human SKVLB1 cells assessed as inhibition of cell growth to IC50 for human SKOV3 cells; format: toxicity, cell-based; settings: SKVLB1 cells (P-gp) versus SKOV3 cells, read-out: Ratio IC50
P-gp [19] = assay: Resistance index, ratio of IC50 for substrate activity at P-gp in human SKVLB1 cells assessed as inhibition of cell growth in presence of verapamil to IC50 for human SKOV3 cells in presence of verapamil; format: toxicity, cell-based; settings: SKVLB1 cells (P-gp) versus SKOV3 cells, with verapamil (concentration not stated), read-out: Ratio IC50
[20] = Ratio of fold resistance for substrate activity at P-gp in human SKVLB1 cells relative to sensitive human SKOV3 cells in absence of verapamil to fold resistance for substrate activity at P-gp in human SKVLB1 cells relative to sensitive human SKOV3 cells in presence of verapamil; format: toxicity, cell-based

Tubulin beta-4 chain (Gallus gallus), sequence (P09652 whole entry): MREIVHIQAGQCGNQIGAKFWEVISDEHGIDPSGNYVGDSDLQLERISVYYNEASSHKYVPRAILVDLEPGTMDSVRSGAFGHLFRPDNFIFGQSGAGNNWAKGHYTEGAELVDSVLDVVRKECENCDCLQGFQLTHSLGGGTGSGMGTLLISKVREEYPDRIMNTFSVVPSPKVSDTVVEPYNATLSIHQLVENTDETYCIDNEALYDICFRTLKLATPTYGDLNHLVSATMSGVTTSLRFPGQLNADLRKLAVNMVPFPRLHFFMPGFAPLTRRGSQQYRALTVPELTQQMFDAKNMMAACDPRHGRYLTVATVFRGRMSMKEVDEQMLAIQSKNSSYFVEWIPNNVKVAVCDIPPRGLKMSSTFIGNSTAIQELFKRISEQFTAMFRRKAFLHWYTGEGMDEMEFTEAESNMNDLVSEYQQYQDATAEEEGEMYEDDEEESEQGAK

Row | Compound | inhibition (Bos taurus) | inhibition [1] | inhibition (Homo sapiens [2]) | Activity (Homo sapiens [3]) | Activity (SK-OV-3 [4]) | Activity (Homo sapiens [5]) | IC50 (HEY) | IC50 [6] | IC50 [7] | IC50 [8] | IC50 (SK-OV-3 [9]) | IC50 [10] | IC50 (SK-OV-3 [11]) | IC50 [12] | IC50 [13] | Ratio IC50 [14] | Ratio IC50 [15] | Ratio IC50 [16] | Ratio IC50 [17] | also measured
1 | CC(=O)O[C@@]12CO[C@@H]1C[C@H](O)[C@@]1(C)C(=O)[C@H](OC(=O)C3CC3)C3=C(C)[C@@H](OC(=O)[C@H](O)[C@H](C=C(C)C)NC(=O)OC(C)(C)C)C[C@@](O)([C@@H](OC(=O)c4ccccc4)[C@H]21)C3(C)C | 38% | 30% | 89% | Active | inactive | 11% | 0.58 µM | 2.3 µM | 1.6 µM | 8 µM | 0.00062 to 0.00146 µM | 0.0756 µM | 0.00144 µM | 0.182 µM | 0.0465 µM |  |  |  |  | 
2 | CC(=O)O[C@@]1(C2/C(C)=C(/O)C(=O)C3=C(C)[C@@H](OC(=O)[C@H](O)[C@H](C=C(C)C)NC(=O)OC(C)(C)C)C[C@@](O)([C@H]2OC(=O)c2cccc(Cl)c2)C3(C)C)CO[C@H]1CCO (stereo partly drawn) | 32% | 6% | > 80% | Active | inactive | 14% | 0.82 µM | 28.8 µM | 13 µM | 13.9 µM | 0.00115 µM | 1.58 µM |  |  |  | 35 | 16 | 17 | 1376 | 
3 | CC(=O)O[C@H]1C(=O)[C@@]2(C)[C@H]([C@H](OC(=O)c3cccc(N=[N+]=[N-])c3)[C@]3(O)C[C@H](OC(=O)[C@H](O)[C@@H](NC(=O)c4ccccc4)c4ccccc4)C(C)=C1C3(C)C)[C@]1(OC(C)=O)CO[C@@H]1C[C@@H]2O |  |  |  |  |  | 16% |  |  |  |  |  |  |  |  |  |  |  |  |  | 
4 | CC(=O)O[C@@]12CO[C@@H]1C[C@H](O)[C@@]1(C)C(=O)[C@H](O)C3=C(C)[C@@H](OC(=O)[C@H](O)[C@@H](NC(=O)OC(C)(C)C)c4ccccc4)C[C@@](O)([C@@H](OC(=O)c4ccccc4)[C@H]21)C3(C)C [DOCETAXEL ANHYDROUS] | 33% | 98% | 55% | Active |  | 45% | 0.86 µM | 41.4 µM | 16.2 µM | 8.4 µM | 0.00075 µM | 3.53 µM |  |  |  | 48 | 19 | 10 | 4704 | 
5 | CC(=O)O[C@H]1C(=O)[C@@]2(C)[C@H]([C@H](OC(=O)c3ccccc3)[C@]3(O)C[C@H](OC(=O)[C@H](O)[C@@H](NC(=O)c4ccccc4)c4ccccc4)C(C)=C1C3(C)C)[C@]1(OC(C)=O)CO[C@@H]1C[C@@H]2O [PACLITAXEL] | 9% | 98% | Active | Active |  | 18% | 2.7 µM | 240 µM | 152 µM | 22.2 µM | 0.00239 to 0.00385 µM | 12.6 µM | 0.00399 µM | 21.2 µM | 3.73 µM | 89 | 56 | 8 | 5416 | selectivity ratio (P-gp [18]): 5520; selectivity ratio (P-gp [19]): 936; Ratio [20]: 5.9
